Assay results: patent publication EP0745595A1, “3-(3-Aryloxyphenyl)-1-(substituted methyl)-s-triazine-2,4,6-oxo or thiotrione herbicidal agents” (American Cyanamid Company, priority 1995, dated 1996)

Legend:
Type in all cases: in vivo
[1] = system: SETARIA VIRIDIS, (L) BEAU; assay: Postemergence herbicidal evaluation, SETVI (Foxtail, Green); set-up: key to SETVI rating / Herbicidal effect rating, SETVI / SETVI: 0-9 visual rating scale vs untreated control
Method in brief: (§1)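 Visual 0–9 scores reflect stand, vigor, malformation, size, chlorosis and overall appearance relative to control, taken 4–5 weeks after spraying two-week-old seedlings with about 0.125–0.500 kg/ha compound in acetone/water/TWEEN 20.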

[2] = system: ECHINOCHLOA CRUS-GALLI, (L) BEAU; assay: Postemergence herbicidal evaluation, ECHCG (Barnyardgrass); set-up: key to ECHCG rating / Herbicidal effect rating, ECHCG / ECHCG: 0-9 visual rating scale vs untreated control
Method in brief: as §1

CASSIA OBTUSIFOLIA, L. = assay: Postemergence herbicidal evaluation, CASOB (Sicklepod); set-up: key to CASOB rating / Herbicidal effect rating, CASOB / CASOB: 0-9 visual rating scale vs untreated control
Method in brief: as §1

IPOMOEA SPP. = assay: Postemergence herbicidal evaluation, IPOSS (Morningglory spp.)
Method in brief: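 Seedlings of morningglory (Ipomoea spp.) were raised in jiffy flats for roughly two weeks. They were then sprayed postemergence through a nozzle at 40 psi with test compound dispersed in 50/50 acetone/water containing 0.5% TWEEN®20 surfactant. Plants were kept on greenhouse benches under standard care and visually rated 0-9 against controls four to five weeks after treatment.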

SAGITTARIA PYGMAEA, L. = assay: Preemergence weed control under flooded paddy conditions, SAGPY (Arrowhead (Pygmaea)); details: preemergence, 3-4 weeks after treatment
Method in brief: (§2)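 Seeds or propagules sown in top 0.5 cm of silt loam in undrained containers, flooded 1.5 to 3 cm throughout. Compounds in aqueous/acetone 50/50 v/v pipetted into flood water at about 0.5, 0.25, 0.125 and 0.063 kg/ha. Visual 0-9 rating versus control after three to four weeks in greenhouse.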

[3] = system: CYPERUS SEROTINUS, ROTTB.; assay: Preemergence weed control under flooded paddy conditions, CYPSE (Flatsedge); details: 0.500 kg/ha, preemergence, 3-4 weeks after treatment
Method in brief: as §2

[4] = system: ABUTILON THEOPHRASTI, MEDIC.; assay: Postemergence herbicidal evaluation, ABUTH (Velvetleaf)
Method in brief: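 Velvetleaf (Abutilon theophrasti) seedlings were raised in jiffy flats for about two weeks and then sprayed postemergence. The test compound was dispersed in a 50/50 acetone/water mixture containing 0.5% TWEEN®20 and applied through a nozzle operating at 40 psi. Plants were kept on greenhouse benches and rated 0-9 four to five weeks after treatment.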

ZEA MAYS L. = assay: Preemergence herbicidal evaluation, ZEAMX (Corn, Field); details: rated four to five weeks after treatment
Method in brief: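 Corn (Zea mays) seeds were mixed with potting soil and planted on about one inch of soil in pint cups, then treated preemergence. Cups were kept on greenhouse benches, watered and maintained conventionally, and after four to five weeks were visually rated on a 0-9 scale versus an untreated control.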

[5] = system: AMBROSIA ARTEMISIIFOLIA, L.; assay: Postemergence herbicidal evaluation, AMBEL (Ragweed, Common)
Method in brief: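 Common ragweed (Ambrosia artemisiifolia) seedlings were raised in jiffy flats for roughly two weeks, then sprayed postemergence through a nozzle at 40 psi with the test compound dispersed in 50/50 acetone/water carrying 0.5% TWEEN®20. The plants were kept on greenhouse benches under conventional care. Four to five weeks later, injury was rated visually on a 0-9 scale, and repeat tests were averaged.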

[6] = system: ORYZA SATIVA, L. TEBONNET; assay: Rice tolerance to post-transplant applications under flooded paddy conditions, ORYSAT (Rice, Tebonnet); details: post-transplant rice, 3-4 weeks after treatment
Method in brief: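 Two ten-day-old Tebonnet rice seedlings were transplanted into silt loam and kept flooded 1.5 to 3 cm deep. Three days after transplanting, the flood surface received the compound in aqueous/acetone 50/50 v/v at about 0.5, 0.25, 0.125 or 0.063 kg/ha. Injury was rated visually on a 0-9 scale versus control after 3-4 weeks.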

[7] = system: GLYCINE MAX(L) MERR. CV. WILLIAMS; assay: Preemergence herbicidal evaluation, GLXMAW (Soybean, Williams); details: rated four to five weeks after treatment
Description: (§3) Results of herbicide evaluation are expressed on a rating scale (0-9). The scale is based upon a visual observation of plant stand, vigor, malformation, size, chlorosis and overall plant appearance as compared with a control.
(§4) The preemergence herbicidal activity of the test compounds of the present invention is exemplified by the following tests in which the seeds of a variety of monocotyledonous and dicotyledonous plants are separately mixed with potting soil and planted on top of approximately one inch of soil in separate pint cups. […] The treated cups are then placed on greenhouse benches, watered and cared for in accordance with conventional greenhouse procedures. From four to five weeks after treatment, the tests are terminated and each cup is examined and rated according to the rating system provided in Example 40.
(§5) The compounds evaluated are reported by compound number given in Example 40.

[8] = system: ORYZA SATIVA, L. TEBONNET; assay: Preemergence herbicidal evaluation, ORYSAT (Rice, Tebonnet); details: rated four to five weeks after treatment
Description: as §3, §4, §5

GALIUM APARINE = assay: Postemergence herbicidal evaluation, GALAP (Galium); set-up: key to GALAP rating / Herbicidal effect rating, GALAP / GALAP: 0-9 visual rating scale vs untreated control
Method in brief: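 Galium (GALAP) seedlings were raised in jiffy flats for about two weeks, then sprayed with test compounds dispersed in 50/50 acetone/water containing 0.5% TWEEN®20, delivered through a nozzle at 40 psi. Plants were kept on greenhouse benches and visually rated 0-9 against a control four to five weeks later; repeat tests were averaged.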

[9] = system: ECHINOCHLOA ORYZOIDES (ARD.)FRITSCH; assay: Preemergence weed control under flooded paddy conditions, ECHORC (Watergrass (Calif.)); details: 0.500 kg/ha, preemergence, 3-4 weeks after treatment
Method in brief: as §2

CYPERUS IRIA = assay: Preemergence weed control under flooded paddy conditions, CYPIR (Rice Flatsedge); details: 0.500 kg/ha, preemergence, 3-4 weeks after treatment
Method in brief: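 Seeds or propagating organs of rice flatsedge were planted in the top 0.5 cm of silt loam soil in 32 oz. plastic containers, 10.5 cm across and without drainage holes. Water was kept 1.5 to 3 cm above the soil throughout. Treated containers were kept on greenhouse benches, and herbicidal effect was visually rated on a 0-9 scale against a control.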

[…], PRESL. = Preemergence weed control under flooded paddy conditions, MOOVA (Monochoria); details: 0.500 kg/ha, preemergence, 3-4 weeks after treatment
Method in brief: as §2

CHENOPODIUM ALBUM, L. = assay: Preemergence herbicidal evaluation, CHEAL (Lambsquarters, Common); details: rated four to five weeks after treatment
Method in brief: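 Seeds mixed with potting soil were planted on about one inch of soil in cups, then sprayed with aqueous acetone solution of test compound at about 0.125 to 0.50 kg per hectare. Plants grown under greenhouse conditions; visual rating on a 0-9 scale versus untreated control at 4-5 weeks.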

[10] = system: TRITICUM AESTIVUM, CV. APOLLO; assay: Preemergence herbicidal evaluation, TRZAWO (Wheat, Winter, CV. APOLLO); details: rated four to five weeks after treatment
Description: as §3, §4, §5

[11] = system: AMBROSIA ARTEMISIIFOLIA, L.; assay: Preemergence herbicidal evaluation, AMBEL (Ragweed, Common); details: rated four to five weeks after treatment
Description: as §3, §4, §5

[12] = system: ABUTILON THEOPHRASTI, MEDIC.; assay: Preemergence herbicidal evaluation, ABUTH (Velvetleaf); details: rated four to five weeks after treatment
Description: as §3, §4, §5

[13] = system: ECHINOCHLOA CRUS-GALLI, (L) BEAU; assay: Preemergence herbicidal evaluation, ECHCG (Barnyardgrass); details: rated four to five weeks after treatment
Method in brief: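 Barnyardgrass seeds were mixed with potting soil and planted on about one inch of soil in pint cups for preemergence testing. Treated cups were kept on greenhouse benches, watered and maintained by standard greenhouse practice. After four to five weeks, each cup was visually rated on a 0-9 scale against an untreated control.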

For COC(=O)Cn1c(=O)n(C)c(=O)n(-c2cc(Oc3ccc(C#N)cc3)ccc2[N+](=O)[O-])c1=O [Compound 32, Methyl 3-[5-(p-cyanophenoxy)-2-nitrophenyl]-tetrahydro-5-methyl-2,4,6-trioxo-s-triazine-1(2H)-acetate], the SETVI rating ([1]; Rate 0.125 kg/ha) was 0.0, the SETVI rating ([1]; Rate 0.250 kg/ha) was 0.0 and the SETVI rating ([1]; Rate 0.500 kg/ha) was 0.0. It also gave an ECHCG rating ([2]; Rate 0.125 kg/ha) of 0.0, an ECHCG rating ([2]; Rate 0.250 kg/ha) of 0.0 and an ECHCG rating ([2]; Rate 0.500 kg/ha) of 0.0. It also gave a CASOB rating (CASSIA OBTUSIFOLIA, L.; Rate 0.125 kg/ha) of 0.0, a CASOB rating (CASSIA OBTUSIFOLIA, L.; Rate 0.250 kg/ha) of 0.0 and a CASOB rating (CASSIA OBTUSIFOLIA, L.; Rate 0.500 kg/ha) of 0.0. The IPOSS rating (IPOMOEA SPP.; Rate 0.125 kg/ha) was 0.0, the IPOSS rating (IPOMOEA SPP.; Rate 0.250 kg/ha) was 0.0 and the IPOSS rating (IPOMOEA SPP.; Rate 0.500 kg/ha) was 0.0. The “Herbicidal effect rating, SAGPY” value (SAGITTARIA PYGMAEA, L.; 0.500 kg/ha) was 0.0, the “Herbicidal effect rating, CYPSE” value [3] was 0.0 and the ABUTH rating ([4]; Rate 0.125 kg/ha) was 0.0. It also gave an ABUTH rating ([4]; Rate 0.250 kg/ha) of 0.0, an ABUTH rating ([4]; Rate 0.500 kg/ha) of 0.0 and a ZEAMX herbicidal rating (ZEA MAYS L.; Rate 0.125 kg/ha) of 0.0. The ZEAMX herbicidal rating (ZEA MAYS L.; Rate 0.250 kg/ha) was 0.0, the ZEAMX herbicidal rating (ZEA MAYS L.; Rate 0.500 kg/ha) was 0.0 and the AMBEL rating ([5]; Rate 0.125 kg/ha) was 0.0. The AMBEL rating ([5]; Rate 0.250 kg/ha) was 0.0, the AMBEL rating ([5]; Rate 0.500 kg/ha) was 0.0 and the “Herbicidal effect rating, ORYSAT” value ([6]; 0.500 kg/ha) was 0.0. For the same compound, the GLXMAW herbicidal rating ([7]; Rate 0.125 kg/ha) was 0.0, the GLXMAW herbicidal rating ([7]; Rate 0.250 kg/ha) was 0.0 and the GLXMAW herbicidal rating ([7]; Rate 0.500 kg/ha) was 0.0. The ORYSAT herbicidal rating ([8]; Rate 0.125 kg/ha) was 2.0, the ORYSAT herbicidal rating ([8]; Rate 0.250 kg/ha) was 2.0 and the ORYSAT herbicidal rating ([8]; Rate 0.500 kg/ha) was 2.0. For the same compound, the GALAP rating (GALIUM APARINE; Rate 0.125 kg/ha) was 0.0, the GALAP rating (GALIUM APARINE; Rate 0.250 kg/ha) was 0.0 and the GALAP rating (GALIUM APARINE; Rate 0.500 kg/ha) was 0.0. The “Herbicidal effect rating, ECHORC” value [9] was 0.0, the “Herbicidal effect rating, CYPIR” value (CYPERUS IRIA) was 0.0 and the “Herbicidal effect rating, MOOVA” value ([…], PRESL.) was 0.0.
For Cn1c(=O)n(CC(=O)OC(C)(C)C)c(=O)n(-c2cc(Oc3c(F)cc(C(F)(F)F)cc3Cl)ccc2F)c1=O [Compound 41, Tert-butyl 3-{[5-(2-chloro-α,α,α,6-tetra-fluoro-p-tolyl)oxy]-2-fluorophenyl}tetra-hydro-5-methyl-2,4,6-trioxo-s-triazine-1(2H)-acetate], the CHEAL herbicidal rating (CHENOPODIUM ALBUM, L.; Rate 0.125 kg/ha) was 9.0, the CHEAL herbicidal rating (CHENOPODIUM ALBUM, L.; Rate 0.250 kg/ha) was 9.0 and the CHEAL herbicidal rating (CHENOPODIUM ALBUM, L.; Rate 0.500 kg/ha) was 9.0. The TRZAWO herbicidal rating ([10]; Rate 0.125 kg/ha) was 0.0, the TRZAWO herbicidal rating ([10]; Rate 0.250 kg/ha) was 0.0 and the TRZAWO herbicidal rating ([10]; Rate 0.500 kg/ha) was 0.0. For the same compound, the “Herbicidal effect rating, SAGPY” value (SAGITTARIA PYGMAEA, L.; 0.063 kg/ha) was 0.0, the “Herbicidal effect rating, SAGPY” value (SAGITTARIA PYGMAEA, L.; 0.125 kg/ha) was 0.0 and the “Herbicidal effect rating, SAGPY” value (SAGITTARIA PYGMAEA, L.; 0.250 kg/ha) was 0.0. The “Herbicidal effect rating, SAGPY” value (SAGITTARIA PYGMAEA, L.; 0.500 kg/ha) was 0.0, the “Herbicidal effect rating, ORYSAT” value ([6]; 0.063 kg/ha) was 0.0 and the “Herbicidal effect rating, ORYSAT” value ([6]; 0.125 kg/ha) was 0.0. The “Herbicidal effect rating, ORYSAT” value ([6]; 0.250 kg/ha) was 0.0, the “Herbicidal effect rating, ORYSAT” value ([6]; 0.500 kg/ha) was 0.0 and the AMBEL herbicidal rating ([11]; Rate 0.125 kg/ha) was 0.0. For the same compound, the AMBEL herbicidal rating ([11]; Rate 0.250 kg/ha) was 0.0, the AMBEL herbicidal rating ([11]; Rate 0.500 kg/ha) was 0.0 and the ABUTH herbicidal rating ([12]; Rate 0.125 kg/ha) was 0.0. It also gave an ABUTH herbicidal rating ([12]; Rate 0.250 kg/ha) of 0.0, an ABUTH herbicidal rating ([12]; Rate 0.500 kg/ha) of 0.0 and an ECHCG herbicidal rating ([13]; Rate 0.125 kg/ha) of 0.0. It also gave an ECHCG herbicidal rating ([13]; Rate 0.250 kg/ha) of 0.0 and an ECHCG herbicidal rating ([13]; Rate 0.500 kg/ha) of 0.0.
